Source: patent US7473822B1, “Soybean transformation and regeneration using half-seed explant” (Iowa State University Research Foundation, Inc., priority 2005, dated 2009)

Legend:
[1] = test system: Thorne soybean half-seed explants; experiment: Agrobacterium-mediated transformation and regeneration of half-seed explants from seeds soaked in BAP; conditions: for Initial Transformation Efficiency (ITE; %): ITE = no. of Liberty-resistant R0 events/no. of explants infected
Experimental: Mature Thorne soybean seeds were surface-sterilized for 16 hrs using chlorine gas, which was produced by mixing 3.5 ml of 12 N HCl with 100 ml of commercial bleach (5.25% sodium hypochloride) (Di et al., Plant Cell Rep. 15: 746-750 (1996)). […] The seeds were then split by cutting longitudinally along the hilums to separate the cotyledons, and the seed coats, primary shoots, and embryonic axes were removed, thereby generating half-seed explants. The half-seed explants were co-cultivated with A. tumefaciens for five days in the light. […]
About 50-100 half-seed explants were inoculated with 30 ml of Agrobacterium suspension culture in a 20×100 mm Petri dish at RT for 30 min. After inoculation, half-seed explants were transferred to co-cultivation medium lined with filter paper (6 explants per plate; flat side of explant in contact with filter paper) (see Table II). Co-cultivation was carried out for five days at 24° C. with 18 hr photoperiod at 140 μmoles sec^−1m^−2 light intensity.
(§1) After co-cultivation, the half-seed explants were washed in liquid shoot induction (SI) medium (see Table III). The explants were cultured on shoot induction medium solidified with 0.7% agar in the absence of selection. The base of the explant (i.e., the part of the explant from where the embryonic axis was removed) was embedded in the medium, facing upwards. […] Shoot induction was carried out in a Percival Biological Incubator at 24° C. with an 18-hr photoperiod at 140 μmoles sec^−1m^−2 light intensity. After 14 days, the explants were transferred to fresh shoot induction medium containing 6 mg/l glufosinate. After four weeks of culture on shoot induction medium, explants were transferred to shoot elongation (SE) medium containing 6 mg/l glufosinate (see Table IV). Two to four weeks later, elongated shoots (>2.5 cm) were dipped in sterile IBA (1 mg/l) and then transferred to rooting medium (see Table V) without glufosinate. After two weeks, agar medium was rinsed off of the rooted plantlets with water, and the rooted plantlets were transplanted to soil (Redi-Earth, Peat-Lite Mix, Scotts-Sierra Horticultural Products Company, Marysville, Ohio) in jiffy pots. The plant (R0) was grown at 24° C. with an 18-hr photoperiod for one-two weeks and then transferred to the greenhouse.
R0 plants with two trifoliates were screened using the herbicide paint assay to identify putative transformants that expressed the bar gene. The upper surface of a leaf was painted with 150 mg/l glufosinate (herbicide Liberty®, AgrEvo, U.S.A.) along the midrib using a cotton bud. Plants were scored based on the tolerance of the leaf tissue to glufosinate at three-five days after painting. Glufosinate-resistant R0 plants were grown in the greenhouse until maturity and seeds were harvested. Subsequently, seeds from R0 plants were sown and progeny-tested to confirm the presence of the transgene in the R1 generation by spraying two-week-old seedlings with 200 mg/l glufosinate. Plants were scored one week after spraying. Thirty-two transgenic events were confirmed in the R1 progeny by spraying with 200 mg/l glufosinate using herbicide Liberty. […] Plants were fertile and produced seed.
After five days of co-cultivation, half-seed explants infected with pTF102 were assayed for transient GUS blue expression to verify T-DNA transfer. The explants were incubated overnight in 5-bromo-4-chloro-3-indolyl glucuronide (X-gluc) solution at 37° C. (Jefferson et al., EMBO J 6: 3901-3907 (1987)). After staining, the explants were de-stained with 70% ethanol to improve contrast. The incidence of GUS activity was determined based on the presence of blue-staining areas. In addition, stable GUS expression was determined after 28 days on regeneration medium or on R0 plants. The transgenic nature of the soybean plants was also confirmed in the R0 or R1 generation by histochemical GUS assay.

[2] = test system: soybean half-seed explants; experiment: Shoot induction on half-seed explants with BAP added to shoot induction medium; conditions: BAP 15-100 μM in shoot induction medium, compared to no treatment or 2.5-7.5 μM
Experimental: as §1

## c1ccc(CNc2ncnc3nc[nH]c23)cc1 [BAP, 6-benzylaminopurine]
[1]; seeds soaked in 7.5 μM BAP
  Freq. GUS blue (on the section of explant where shoots were induced): (10%)
  Freq. GUS blue (on the section of explant where shoots were induced), count: 1/10
  No. of Liberty-resistant R0 plants: 0
  Reg. Freq. (%) (regeneration frequency at first shoot induction stage): (8) %
  Reg. Freq. (regeneration frequency at first shoot induction stage), explants count: 4/50
  Initial Transformation Efficiency (ITE; %): 0.0%
[1]; seeds soaked in 15 μM BAP
  Freq. GUS blue (on the section of explant where shoots were induced): (20%)
  Freq. GUS blue (on the section of explant where shoots were induced), count: 2/10
  No. of Liberty-resistant R0 plants: 3
  Reg. Freq. (%) (regeneration frequency at first shoot induction stage): (48) %
  Reg. Freq. (regeneration frequency at first shoot induction stage), explants count: 24/50
  Initial Transformation Efficiency (ITE; %): 6.0%
[1]; seeds soaked in 30 μM BAP
  Freq. GUS blue (on the section of explant where shoots were induced): (90%)
  Freq. GUS blue (on the section of explant where shoots were induced), count: 9/10
  No. of Liberty-resistant R0 plants: 2
  Reg. Freq. (%) (regeneration frequency at first shoot induction stage): (58) %
  Reg. Freq. (regeneration frequency at first shoot induction stage), explants count: 29/50
  Initial Transformation Efficiency (ITE; %): 4.0%
[1]; seeds soaked in 50 μM BAP
  Freq. GUS blue (on the section of explant where shoots were induced): (67%)
  Freq. GUS blue (on the section of explant where shoots were induced), count: 6/9
  No. of Liberty-resistant R0 plants: 0
  Reg. Freq. (%) (regeneration frequency at first shoot induction stage): (46) %
  Reg. Freq. (regeneration frequency at first shoot induction stage), explants count: 23/50
  Initial Transformation Efficiency (ITE; %): 0.0%
[2]
  shoot formation (regeneration frequency): enhanced shoot formation
